Experimental data: EP4000618A1, “COMBINATION OF AT LEAST ONE INHIBITOR OF THE XC TRANSPORTER WITH AT LEAST ONE INHIBITOR OF MEMBRANE-BOUND CATALASE FOR INHIBITING AND / OR INACTIVATING TUMOR CELLS” (Motz, Manfred, priority 2020, dated 2022)
Entries after “also recorded” stand apart in the source; their conditions may differ. Where a name gives a salt, the structure may show the parent alone.

System: humanen Magenkarzinomzellen (MKN-45)
Experiment: Apoptosis induction in MKN-45 tumour cells after catalase inhibition; percentage of cells with apoptosis features counted by phase-contrast microscopy
Type: cell-based, human
Conditions: for Effect on the consequence of the 3-AT pretreatment (no lag phase, independence from aquaporins): inhibitor present during 1 h pretreatment with 3-AT (Figur 3B)
From the text: Erfindungsgemäß wurden verschiedene Experimente mit humanen Magenkarzinomzellen (MKN-45) durchgeführt. Die experimentellen Einzelheiten der Versuche sind in der Literaturstelle Heinzelmann und Bauer, Biol. Chem. (2010) 391, S. 675-693 detailliert beschrieben. Auf die experimentelle Ausgestaltung wird hiermit ausdrücklich verwiesen.
In der Literaturstelle Heinzelmann und Bauer sind die Herkunft der jeweiligen Zellen, deren Anzuchtbedingungen, die Apoptoseinduktion und deren Messung beschrieben. Die membranständige Katalase wurde mit 3-Aminotriazol (3-AT) gehemmt. Spezifische Inhibitoren, die die Differenzierung zwischen dem reaktiven NO/Peroxynitritweg und dem HOCI-Weg erlauben, sind weiterhin in der Literaturstelle Heinzelmann und Bauer (a.a.o.) offenbart. Bei den einzelnen Auswertungen wurde die Apoptoseinduktion über die Quantifizierung des Prozentsatzes derjenigen Zellen bestimmt, die die Apoptosemerkmale Kernkondensation, Kernfragmentation und/oder Membrane-Blebbing aufwiesen. Die Quantifizierung erfolgte jeweils mit Hilfe eines Phasenkontrast-Umkehrmikroskops.

[1] = inhibitor added to 3-AT, whole 3-AT concentration range (Figur 1A, 1C)
[2] = inhibitor added to 3-AT, higher 3-AT concentration range (Figur 1A, 1B)

## NCCc1ccc(S(=O)(=O)F)cc1 [AEBSF, 4-(2-Aminoethyl)benzenesulfonyl fluoride]
[1]
  Hemmung der Apoptoseinduktion: gehemmt; also recorded: vollständigen Hemmung der Apoptose
  Effect on the consequence of the 3-AT pretreatment (no lag phase, independence from aquaporins): führt die Vorbehandlung nicht zu der unter A gezeigten Konsequenz

## COc1cccc(C=NCCN=Cc2cccc(OC)c2[O-])c1[O-].[Cl-].[Mn+3] [EUK-134]
[2]
  Hemmung der Apoptoseinduktion: nur in diesem Bereich zur Hemmung; also recorded: hemmt nur die durch höhere Konzentrationen an 3-AT induzierte Apoptose
  Effect on the consequence of the 3-AT pretreatment (no lag phase, independence from aquaporins): führt die Vorbehandlung nicht zu der unter A gezeigten Konsequenz

## Cl.O=S(=O)([O-])c1ccc(-c2c3nc(c(-c4ccc(S(=O)(=O)O)cc4)c4ccc([nH]4)c(-c4ccc(S(=O)(=O)O)cc4)c4nc(c(-c5ccc(S(=O)(=O)O)cc5)c5ccc2[nH]5)C=C4)C=C3)cc1.[Fe] [FeTPPS, 5-, 10-, 15-, 20-Tetrakis(4-sulfonatophenyl)porphyrinato iron(III) chloride]
Cells not pretreated, range 3-6 nM 3-AT (Figur 6A)
  Hemmung der Apoptoseinduktion: geringfügigen Anteil des NO/Peroxynitritwegs
Inhibitor added to 3-AT, low 3-AT concentration range (Figur 1B)
  Hemmung der Apoptoseinduktion: zur Hemmung; also recorded: Hemmung der Apoptose im niedrigeren 3-AT Konzentrationsbereich

## COC(=O)[C@@H](N)CCCNC(=N)N[N+](=O)[O-] [L-NAME, N-omega-nitro-L-arginine methylester hydrochloride]
Inhibitor added to 3-AT, low 3-AT concentration range (Figur 1B), hydrochloride
  Hemmung der Apoptoseinduktion: zur Hemmung; also recorded: Hemmung der Apoptose im niedrigeren 3-AT Konzentrationsbereich

## OC[C@@H](O)[C@@H](O)[C@H](O)[C@H](O)CO [Mannitol]
[1]
  Hemmung der Apoptoseinduktion: gehemmt; also recorded: Hemmung der Apoptoseinduktion

## [Ag+] [Silberionen]
1 h preincubation with 100 mM 3-AT, wash, 3-AT again with Silberionen (Figur 3A)
  Hemmung der Apoptoseinduktion: nicht mehr durch Silberionen zu hemmen
1 h preincubation without 3-AT, wash, then 3-AT with Silberionen (Figur 3A)
  Hemmung der Apoptoseinduktion: daher durch Silberionen zu hemmen
Silberionen 5 µM added before 3-AT 100 mM (Figur 2A)
  Hemmung der Apoptoseinduktion: blockiert die Apoptoseinduktion fast vollständig; also recorded: nur dann vollständig wirkt
Silberionen 5 µM added later, after 3-AT 100 mM (Figur 2A)
  Hemmung der Apoptoseinduktion: wirken schwächer oder gar nicht
Silberionen 5 µM added to 3-AT concentration series (Figur 1D, 4A)
  Hemmung der Apoptoseinduktion: hemmen die Apoptose vollständig; also recorded: durch Silberionen gehemmt; also recorded: blockieren die Apoptoseinduktion vollständig

## O=C(O)c1cc(/N=N/c2ccc(S(=O)(=O)Nc3ccccn3)cc2)ccc1O [Sulfasalazin]
14 h pretreatment with rising concentrations of Sulfasalazin, then 3-AT (Figur 4B-D)
  Abhängigkeit der Apoptoseinduktion von der Aquaporinwirkung (Hemmbarkeit durch Silberionen): ersetzt graduell die Wirkung der Aquaporine; also recorded: in steigendem Umfang von der Aktivität der Aquaporine unabhängig
Sulfasalazin and 3-AT given at the same time (Figur 5B)
  Synergieeffekt mit 3-AT: bleibt dieser Synergieeffekt aus; also recorded: nicht ausreichend für die Induktion eines Synergieeffekts
After Sulfasalazin pretreatment (Figur 4)
  Absenkung der 3-AT-Konzentration bei gleichbleibendem Effekt: ca. zehnfacher Absenkung
Pretreatment of the cells with Sulfasalazin, then 3-AT (Figur 5A, 4A vs 4D)
  Synergieeffekt mit 3-AT: konzentrationsabhängig zu einem Synergieeffekt; also recorded: Synergieeffekt zwischen 3-AT- und Sulfasalazinwirkung
Pretreatment with 100 µM Sulfasalazin, then 3-AT (Figur 4D)
  Abhängigkeit von der Aquaporinwirkung: vollständig aufgehoben
Pretreatment with 100 µM Sulfasalazin, then 3-AT, profile with FeTPPS and Taurin (Figur 6B)
  Signalweg der Apoptoseinduktion beim Synergieeffekt: vollständig durch den NO/Peroxynitritweg bedingt; also recorded: lediglich zu einer Verstärkung des NO/Peroxynitritwegs geführt

## NCCS(=O)(=O)O [Taurin]
Taurin added two hours after 3-AT (Figur 2B)
  Hemmung der Apoptoseinduktion: sofortigen Abbruch der Apoptoseinduktion; also recorded: erfolgreichen und sofortigen Hemmung der Apoptoseinduktion
Cells not pretreated, range 0.7 und 6 mM 3-AT (Figur 6A)
  Steigerung der Apoptose: Steigerung der Apoptose
[2]
  Hemmung der Apoptoseinduktion: im höheren Konzentrationsbereich; also recorded: spezifisch Apoptose hemmen, die durch höhere Konzentrationen an 3-AT induziert wurde
